The values below come from patent US20120121540A1 (priority 2007, published 2012).

A short description of the experiment: HCV replicon assay (luciferase reporter, ET cell line). The note with it: Hepatitis C virus, HCV replicon luciferase activity in ET cells. Type of experiment: cell-based. The gist of the method: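 EC50 and, via WST-1 cytotoxicity, TC50 were fitted with a Hill-coefficient equation to % inhibition across 10 two-fold dilutions. Compounds at 0.1 nM-[…] with 0.5% DMSO were applied 24 h post-seeding to replicon-bearing ET cells (luc-ubi-neo/NS3-5B, adaptive mutations). Firefly luciferase signal was measured after 48-72 h.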
A general note: A replicon is a self-replicating genome or part of one, used to study replication in cells.
The compound `O=C(c1nc2c(C(F)(F)F)cc(-c3ccoc3)cn2c1Cl)N1CCCC(c2ccc(F)cc2)C1` (stereo not shown) [Compound 548, (3-Chloro-6-furan-3-yl-8-trifluoromethyl-imidazo[1,2-a]pyridin-2-yl)-[3-(4-fluoro-phenyl)-piperidin-1-yl)-methanone] came in with an inhibition at 10 µM of 91.2%.

As for `COC(=O)Cc1c(C(=O)N2CCC(c3ccc(F)cc3)C2)nc2c(C(F)(F)F)cc(-c3ccoc3)cn12` (stereo not shown) [Compound 235, {2-[3-(4-Fluoro-phenyl)-pyrrolidine-1-carbonyl]-6-furan-3-yl-8-trifluoromethyl-imidazo[1,2-a]pyridin-3-yl}-acetic Acid Methyl Ester], at 10 µM the inhibition was 96.6%.

`CN(C)CCNC(=O)C(NC(=O)c1nc2c(C(F)(F)F)cc(-c3ccco3)cn2c1Cl)c1cccs1` (stereo not shown) [Compound 172, 3-Chloro-6-furan-2-yl-8-trifluoromethyl-imidazo[1,2-a]pyridine-2-carboxylic acid [(2-dimethylamino-ethylcarbamoyl)-thiophen-2-yl-methyl]-amide] returned an inhibition at 10 µM of 100%. In the case of `COc1ccc(C2CCN(C(=O)c3nc4c(C(F)(F)F)cc(-c5ccoc5)cn4c3Cl)C2)cc1` (stereo not shown) [Compound 335, (3-Chloro-6-furan-3-yl-8-trifluoromethyl-imidazo[1,2-a]pyridin-2-yl)-[3-(4-methoxy-phenyl)-pyrrolidin-1-yl]-methanone] it was 76.3%; in that of `C[C@@H](CNC(=O)c1nc2c(C(F)(F)F)cc(-c3ccoc3)cn2c1Cl)c1ccccc1` (stereo in doubt) [Compound 413, 3-Chloro-6-furan-3-yl-8-trifluoromethyl-imidazo[1,2-a]pyridine-2-carboxylic Acid (2-phenyl-propyl)-amide], 82.8%. The compound `O=C(c1nc2c(C(F)(F)F)cc(-c3cn[nH]c3)cn2c1Br)N1CC=C(c2cscn2)CC1` [Compound 609, [3-Bromo-6-(1H-pyrazol-4-yl)-8-trifluoromethyl-imidazo[1,2-a]pyridin-2-yl]-(4-thiazol-4-yl-3,6-dihydro-2H-pyridin-1-yl)-methanone] registered an inhibition at 10 µM of 94.1%.

In turn, `CN(C)c1cc(-c2ccccc2)cc2cc(C(=O)NCc3cccs3)nn12` [Compound 150, 7-dimethylamino-5-phenyl-pyrazolo[1,5-a]pyridine-2-carboxylic Acid (thiophen-2-ylmethyl)-amide] gave an inhibition at 10 µM of 43.5%. In the case of `O=C(NCC1CCCO1)c1nc2c(C(F)(F)F)cc(-c3ccco3)cn2c1Cl` (stereo not shown) [Compound 184, 3-Chloro-6-furan-2-yl-8-trifluoromethyl-imidazo[1,2-a]pyridine-2-carboxylic acid (tetrahydro-furan-2-ylmethyl)-amide] it was 84.4%; in that of `O=C(NCc1cn2cc(-c3ccoc3)cc(C(F)(F)F)c2n1)OCc1ccccc1` [Compound 393, (6-Furan-3-yl-8-trifluoromethyl-imidazo[1,2-a]pyridine-2-ylmethyl)-carbamic Acid Benzyl Ester], 0.5%; in that of `O=C(c1nc2c(C(F)(F)F)cc(-c3ccoc3)cn2c1Cl)N1CCN(c2noc3ccccc23)CC1` [Compound 551, (4-Benzo[d]isoxazol-3-yl-piperazin-1-yl)-(3-Chloro-6-furan-3-yl-8-trifluoromethyl-imidazo[1,2-a]pyridine-2-yl)-methanone], 38.5%. `O=C(NCc1cccs1)c1nc2c(C(F)(F)F)cc(-c3cccs3)cn2c1Cl` [Compound 175, 3-Chloro-6-thiophen-2-yl-8-trifluoromethyl-imidazo[1,2-a]pyridine-2-carboxylic acid (thiophen-2-ylmethyl)-amide] yielded an inhibition at 10 µM of 99.4%. In the case of `CCn1c(C(=O)N2CCC(c3ccc(F)cc3)C2)nc2c(C(F)(F)F)cc(-c3ccoc3)cc21` (stereo not shown) [Compound 352, (1-Ethyl-6-furan-3-yl-4-trifluoromethyl-1H-benzoimidazol-2-yl)-[3-(4-fluoro-phenyl)-pyrrolidin-1-yl]-methanone] it was 49.8%; in that of `O=C(NCc1cccs1)c1nc2c(C(F)(F)F)cc(-c3cc[nH]c3)cn2c1Cl` [Compound 279, 3-Chloro-6-(1H-pyrrol-3-yl)-8-trifluoromethyl-imidazo[1,2-a]pyridine-2-carboxylic Acid(thiophen-2-ylmethyl)-amide], 95.8%; in that of `CN(C)S(=O)(=O)c1ccccc1C1=CCN(C(=O)c2nc3c(C(F)(F)F)cc(-c4ccoc4)cn3c2Cl)CC1` [Compound 577, 2-[1-(3-Chloro-6-furan-3-yl-8-trifluoromethyl-imidazo[1,2-a]pyridin-2-carbonyl)-1,2,3,6-tetrahydro-pyridin-4-yl)-N,N-dimethyl-benzenesulfonamide], 71.2%. In the case of `O=C(O)Cc1c(C(=O)NCc2cccs2)nc2c(C(F)(F)F)cc(-c3ccoc3)cn12` [Compound 226, {6-Furan-3-yl-2-[(thiophen-2-ylmethyl)-carbamoyl]-8-trifluoromethyl-imidazo[1,2-a]pyridin-3-yl}-acetic Acid] it was 98.8%. `O=C(c1nc2c(C(F)(F)F)cc(-c3ccoc3)cn2c1Cl)N1CCC(c2nccs2)C1` (stereo not shown) [Compound 430, (3-Chloro-6-furan-3-yl-8-trifluoromethyl-imidazo[1,2-a]pyridin-2-yl)-(3-thiazol-2-yl-pyrrolidin-1-yl)-methanone] returned an inhibition at 10 µM of 99.4%.

`O=C(NCC1CCCCC1)c1nc2c(C(F)(F)F)cc(-c3ccco3)cn2c1Cl` [Compound 170, 3-Chloro-6-furan-2-yl-8-trifluoromethyl-imidazo[1,2-a]pyridine-2-carboxylic acid cyclohexylmethyl-amide] came in with an inhibition at 10 µM of 58%. With `O=C(c1nc2c(C(F)(F)F)cc(-c3ccoc3)cn2c1Cl)N1CC=C(c2ccnc(F)c2)CC1` [Compound 587, (3-Chloro-6-furan-3-yl-8-trifluoromethyl-imidazo[1,2-a]pyridine-2-yl)-(2′-fluoro-3,6-dihydro-2H-[4,4′]bipyridinyl-1-yl)-methanone], 10 µM produced 76.9% inhibition. On to `O=C(c1nc2c(C(F)(F)F)cc(-c3ccoc3)cn2c1Cl)N1CCCCC1c1ccccc1F` (stereo not shown) [Compound 544, (3-Chloro-6-furan-3-yl-8-trifluoromethyl-imidazo[1,2-a]pyridin-2-yl)-[2-(2-fluoro-phenyl)-piperidin-1-yl)-methanone], for which the inhibition at 10 µM is 75.4%.

`O=C(c1nc2c(C(F)(F)F)cc(-c3ccoc3)cn2c1Cl)N1CCC(N2CCOCC2)C1` (stereo not shown) [Compound 381, (3-Chloro-6-furan-3-yl-8-trifluoromethyl-imidazo[1,2-a]pyridin-2-yl)-(3-morpholin-4-yl-pyrrolidin-1-yl)-methanone] yielded an inhibition at 10 µM of 37.9%. Regarding `O=C(NCc1ccc(C(F)(F)F)cc1)c1nc2c(C(F)(F)F)cc(-c3ccco3)cn2c1Cl` [Compound 181, 3-Chloro-6-furan-2-yl-8-trifluoromethyl-imidazo[1,2-a]pyridine-2-carboxylic acid 4-trifluoromethyl-benzylamide], 10 µM produced 48.2% inhibition. In the case of `O=C(c1cn2cc(-c3cn[nH]c3)cc(C(F)(F)F)c2n1)N1CC=C(c2nccs2)C1` [Compound 440, [6-(1H-Pyrazol-4-yl)-8-trifluoromethyl-imidazo[1,2-a]pyridin-2-yl]-(3-thiazol-2-yl-2,5-dihydro-pyrrol-1-yl)-methanone] it was 98.9%.

A word on the inhibition: it is the relative decrease from the control value, in per cent.
